In the experiment the target is Histone-lysine N-methyltransferase, H3 lysine-79 specific (Homo sapiens, UniProt Q8TEK3). The experiment is described as follows: Enzyme Assay. The method, then:
Assay of DOT1L enzymatic activity were performed under balanced conditions using a radiometric assay.

pKd, pKi: −log10 of the molar value.

Histone-lysine N-methyltransferase, H3 lysine-79 specific, sequence (Q8TEK3 whole entry): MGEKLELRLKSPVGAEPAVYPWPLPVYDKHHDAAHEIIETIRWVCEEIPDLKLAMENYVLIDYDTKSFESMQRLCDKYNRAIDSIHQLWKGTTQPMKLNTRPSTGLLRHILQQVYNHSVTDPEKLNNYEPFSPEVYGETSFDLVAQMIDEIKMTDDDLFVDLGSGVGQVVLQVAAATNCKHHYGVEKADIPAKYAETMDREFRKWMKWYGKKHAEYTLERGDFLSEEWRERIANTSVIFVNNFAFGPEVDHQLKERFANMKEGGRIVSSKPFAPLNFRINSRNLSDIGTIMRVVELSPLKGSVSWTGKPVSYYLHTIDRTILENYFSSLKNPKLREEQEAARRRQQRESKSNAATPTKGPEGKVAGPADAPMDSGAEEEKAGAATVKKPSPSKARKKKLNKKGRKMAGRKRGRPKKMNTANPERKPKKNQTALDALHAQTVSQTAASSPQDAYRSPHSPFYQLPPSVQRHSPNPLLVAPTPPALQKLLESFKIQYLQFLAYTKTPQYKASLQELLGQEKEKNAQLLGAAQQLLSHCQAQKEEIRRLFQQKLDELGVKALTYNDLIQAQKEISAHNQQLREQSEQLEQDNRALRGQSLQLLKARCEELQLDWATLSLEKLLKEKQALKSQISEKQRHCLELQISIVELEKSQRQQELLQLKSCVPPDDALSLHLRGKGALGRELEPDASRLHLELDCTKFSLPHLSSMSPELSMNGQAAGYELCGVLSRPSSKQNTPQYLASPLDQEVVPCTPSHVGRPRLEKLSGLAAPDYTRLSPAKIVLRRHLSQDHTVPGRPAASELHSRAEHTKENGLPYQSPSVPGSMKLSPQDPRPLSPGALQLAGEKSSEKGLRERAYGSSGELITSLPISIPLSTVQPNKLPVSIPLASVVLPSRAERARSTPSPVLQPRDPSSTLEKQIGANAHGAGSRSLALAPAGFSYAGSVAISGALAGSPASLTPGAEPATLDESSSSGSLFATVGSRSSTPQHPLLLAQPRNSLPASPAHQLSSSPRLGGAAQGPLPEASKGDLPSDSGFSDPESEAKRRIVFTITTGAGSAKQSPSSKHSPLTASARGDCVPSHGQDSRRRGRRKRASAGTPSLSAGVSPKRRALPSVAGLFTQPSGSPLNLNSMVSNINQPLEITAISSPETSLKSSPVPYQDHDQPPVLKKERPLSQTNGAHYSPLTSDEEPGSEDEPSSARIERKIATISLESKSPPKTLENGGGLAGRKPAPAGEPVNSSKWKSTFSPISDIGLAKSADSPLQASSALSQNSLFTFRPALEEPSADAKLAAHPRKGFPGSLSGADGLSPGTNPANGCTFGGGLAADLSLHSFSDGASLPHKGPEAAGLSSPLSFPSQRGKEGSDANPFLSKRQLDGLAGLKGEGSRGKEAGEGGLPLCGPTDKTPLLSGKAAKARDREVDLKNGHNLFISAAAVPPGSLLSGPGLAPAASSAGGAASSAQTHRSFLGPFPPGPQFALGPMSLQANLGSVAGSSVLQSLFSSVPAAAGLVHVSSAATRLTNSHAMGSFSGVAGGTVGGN

Regarding `CN(CCNC(=O)Nc1ccc(C(C)(C)C)cc1)CC1OC(n2cnc3c(N)ncnc32)[C@H](O)[C@@H]1O` (some centres not stated) [EPZ003647], the pKd was 6.78 and the pKi was 6.07.

Broadly, the pKd is the negative decadic logarithm of the Kd, by convention in mol/L. For orientation: pKi means the Ki on a negative log10 scale, so that one unit is a factor of ten. A high value points to a small Ki.

(Values after BindingDB's records for doi:10.1111/cbdd.12050 (Epizyme, 2012).)
